The record followed here is US9675070B2 (BAYER CROPSCIENCE AG, priority 2013, dated 2017).

Molecules are shown by their SMILES.

The nature of data set [1]: log P determination by HPLC on reversed-phase column (C18), EEC Directive 79/831 Annex V.A8. The format is physicochemical. To be noted: method a): Agilent 1100 LC, Zorbax Eclipse Plus C18, acetonitrile/water with formic acid, gradient 10-95% in 4.25 min, 55° C. The procedure:
Agilent 1100 LC system; 50*4.6 Zorbax Eclipse Plus C18 1.8 micron; mobile phase A: acetonitrile (0.1% formic acid); mobile phase B: water (0.09% formic acid); linear gradient from 10% acetonitrile to 95% acetonitrile in 4.25 min, then 95% acetonitrile for a further 1.25 min; oven temperature 55° C.; flow rate: 2.0 ml/min. Mass detection is carried out via an Agilend MSD system.
^a)Unless indicated otherwise, the following method was used to determine the log P values and masses: The determination of the given log P values was carried out in accordance with EEC Directive 79/831 Annex V.A8 by HPLC (High Performance Liquid Chromatography) on a reversed-phase column (C18). Agilent 1100 LC system; 50*4.6 Zorbax Eclipse Plus C18 1.8 micron; mobile phase A: acetonitrile (0.1% formic acid); mobile phase B: water (0.09% formic acid); linear gradient from 10% acetonitrile to 95% acetonitrile in 4.25 min, then 95% acetonitrile for a further 1.25 min; oven temperature 55° C.; flow rate: 2.0 ml/min. Mass detection is carried out via an Agilend MSD system. ^b)Note for the alternative method for determining log P values and masses: The stated log P values were determined in accordance with EEC Directive 79/831 Annex V.A8 by HPLC (High Performance Liquid Chromatography) using a reversed-phase column (C18). Waters ACQUITY UPLC-MS system; 2.1*50 mm Zorbax Eclipse Plus C18 1.8 μm 600 bar; injection volume: 0.5 ul about 1000 ppm; mobile phase A: acetonitrile (0.1% formic acid); mobile phase B: water (0.085% formic acid); linear gradient from 10% acetonitrile to 95% acetonitrile in 1.5 min, then 95% acetonitrile for a further 0.5 min; oven temperature 60° C.; flow rate: 1.0 ml/min. Mass detection is carried out via a Waters SQD system.

For data set [2], the system named is Tick nymphs (Amblyomma hebraeum). The data set is described as follows: Amblyomma hebaraeum test (AMBYHE), tick nymph immersion. The data set is classed as in vivo. To be noted: application rate 100 ppm; immersion one minute; after 42 days. The procedure:
Amblyomma hebaraeum Test (AMBYHE) Solvent: dimethyl sulphoxide To produce a suitable preparation of active compound, 10 mg of active compound are mixed with 0.5 ml of dimethyl sulphoxide, and the concentrate is diluted with water to the desired concentration. Tick nymphs (Amblyomma hebraeum) are placed into perforated plastic beakers and immersed in the desired concentration for one minute. The ticks are transferred on filter paper into a Petri dish and stored in a climate-controlled cabinet. After 42 days, the kill in % is determined. 100% means that all of the ticks have been killed; 0% means that none of the ticks have been killed.

The test system of data set [3] is cattle ticks (Boophilus microplus) Parkhurst strain, SP-resistant. The data set is described as follows: Boophilus microplus dip test (BOOPMI Dip). The data set is classed as in vivo. To be noted: application rate 100 ppm, assessed after 7 days. How it is done: Boophilus microplus—Dip Test (BOOPMI Dip)
Test animals: cattle ticks (Boophilus microplus) Parkhurst strain, SP-resistant
Solvent: dimethyl sulphoxide
10 mg of active compound are dissolved in 0.5 ml of dimethyl sulphoxide. To prepare a suitable formulation, the active compound solution is diluted with water to the concentration desired in each case.
This active compound preparation is pipetted into tubes. 8-10 adult engorged female cattle ticks (Boophilus microplus) are transferred into a further tube with holes. The tube is immersed into the active compound formulation, and all ticks are completely wetted. After the liquid has run out, the ticks are transferred on filter discs into plastic dishes and stored in a climate-controlled room.
The activity is assessed after 7 days by laying of fertile eggs. Eggs whose fertility is not visible from the outside are stored in a climate-controlled cabinet until the larvae hatch after about 42 days. An efficacy of 100% means that none of the ticks has laid any fertile eggs; 0% means that all eggs are fertile.

For data set [4], the system named is engorged adult female cattle ticks (Boophilus microplus). The data set is described as follows: Boophilus microplus injection test (BOOPMI Inj). The format is in vivo. The settings on record: application rate 20 μg/animal; injection into abdomen; assessed after 7 days.
For data set [5], the system named is adult cat fleas (Ctenocephalides felis). Briefly: Ctenocephalides felis oral test (CTECFE). The format is in vivo. The settings on record: application rate 100 ppm in citrated cattle blood; after 2 days.
The test system of data set [6] is L1 larvae of the Australian sheep blowfly (Lucilia cuprina). Briefly: Lucilia cuprina test (LUCICU). The format is in vivo. The settings on record: application rate 100 ppm; minced horsemeat; after 2 days.
In data set [7] the test system is adult houseflies (Musca domestica). Briefly: Musca domestica test (MUSCDO). The format is in vivo. To be noted: application rate 100 ppm; after 2 days.
Data set [8] deals with southern root-knot nematode (Meloidogyne incognita). Briefly: Meloidogyne incognita test (MELGIN). The data set is classed as in vivo. The settings on record: application rate 20 ppm; lettuce; after 14 days. The procedure: Meloidogyne incognita Test (MELGIN) Solvent: 125.0 parts by weight of acetone To prepare a suitable active compound preparation, 1 part by weight of active compound is mixed with the stated amount of solvent and the concentrate is diluted with water to the desired concentration. Vessels are filled with sand, active compound solution, an egg/larvae suspension of the southern root-knot nematode (Meloidogyne incognita) and lettuce seeds. The lettuce seeds germinate and the plants develop. On the roots, galls are formed. After 14 days, the nematicidal efficacy in % is determined by the formation of galls. 100% means that no galls have been found; 0% means that the number of galls on the treated plants corresponds to the untreated control.

Data set [9] concerns larvae of the mustard beetle (Phaedon cochleariae). The data set is described as follows: Phaedon cochleariae spray test (PHAECO). To be noted: application rate 100 g/ha; Chinese cabbage leaf discs; after 7 days. The data set is classed as in vivo.
Data set [10] has as its system caterpillars of the armyworm (Spodoptera frugiperda). Briefly: Spodoptera frugiperda spray test (SPODFR). The format is in vivo. The settings on record: application rate 100 g/ha; maize leaf discs; after 7 days.
Data set [11] relates to greenhouse red spider mite (Tetranychus urticae), OP-resistant. Briefly: Tetranychus urticae spray test, OP-resistant (TETRUR). The format is in vivo. The settings on record: application rate 100 g/ha; bean leaf discs; after 6 days.

On to `CCC(=O)NCc1cccc(-c2cnn(-c3c(C(F)(F)F)c(C(F)(F)C(F)(F)F)nn3C)c2)c1` [Ic-1, N-{3-[2′-methyl-5′-(pentafluoroethyl)-4′-(trifluoromethyl)-2′H-1,3′-bipyrazol-4-yl]benzyl}propanamide], for which the chromatographic logP in data set [1] was 3.59. Besides, the kill in % in [2], in data set [5], in data set [6] and in data set [7] was 100% throughout. Also, the “efficacy (no laying of fertile eggs)” value in [3] and in [4] was 100% in each case. Further, in data set [8], the “nematicidal efficacy in % (formation of galls)” value stood at 90%. The efficacy in % worked out at 100% in [9], 100% in [10] and 90% in data set [11].
